Data on two molecules can be found in paper PMC8511391, “Optimization of Pichia pastoris Expression System for High-Level Production of Margatoxin” (Frontiers in Pharmacology, 2021).

In one assay the target is T1, hKv1.3 (Homo sapiens, UniProt P22001).
T1 construct: endogenous in cells
It is filed as cell-based.

The target of a further assay is Kv1.3. The settings on record: cited from earlier work. The method, then:
Voltage-gated potassium (Kv) channels are present in a variety of cells and tissues where they regulate multiple physiological processes, including cardiac function, neural excitability, muscle contraction, cell proliferation, cell volume control, and hormonal secretion ([Coetzee et al., 1999]; [Giangiacomo et al., 2004]). […] Previous studies report the production of recombinant MgTx (rMgTx) in E. coli and P. ... || Pharmacological activity of both versions of rMgTx was evaluated by studying their effect on the hKv1.2 and hKv1.3 ion channels. The hKv1.2 current was recorded in CHO cells, which heterologously expressed the hKv1.2 ion channel, and hKv1.3 current was recorded in the human peripheral blood lymphocytes. The stimulation of the hKv1.3 channel expression (activation of isolated mononuclear cells by PHA, see the Materials and Methods section) and recording conditions (no Ca^2+ in the pipette to elicit Ca^2+-activated K^+ channels) guaranteed that the current recorded in these cells is K^+ current ... || (+ 2 further places)

For another assay, the system named is Kv1.1. The note with it: abstract, ref not given; cited from earlier work. The source says:
Margatoxin (MgTx) is a high-affinity blocker of voltage-gated potassium (Kv) channels. […] This toxin is widely used to study physiological function of Kv ion channels in various cell types, including immune cells. Isolation of native MgTx in large quantities from scorpion venom is not affordable. Chemical synthesis and recombinant production in Escherichia coli need in vitro oxidative refolding for proper disulfide bond formation, resulting in a very low yield of peptide production. The Pichia pastoris expression system offers an e ...

The next assay concerns Kv1.2. The settings on record: 2014, cited from earlier work. The method, then: Margatoxin (MgTx) is a 39-amino-acid peptide toxin isolated from the venom of the scorpion Centruroides margaritatus. Its 3D structure consists of an α-helix and three antiparallel β-strands stabilized by three disulfide bonds. […] Previous studies report the production of recombinant MgTx (rMgTx) in E. coli and P. ... || Pharmacological activity of both versions of rMgTx was evaluated by studying their effect on the hKv1.2 and hKv1.3 ion channels. The hKv1.2 current was recorded in CHO cells, which heterologously expressed the hKv1.2 ion channel, and hKv1.3 current was recorded in the human peripheral blood lymphocytes. The stimulation of the hKv1.3 channel expression (activation of isolated mononuclear cells by PHA, see the Materials and Methods section) and recording conditions (no Ca^2+ in the pipette to elicit Ca^2+-activated K^+ channels) guaranteed that the current recorded in these cells is K^+ current ... || The kinetics of current block by UrMgTx was consistent with previously reported data for MgTx. […] The association rate of TrMgTx, which has the N-terminal His-tag, was ∼1.6-fold lower than that of UrMgTx for both hKv1.2 and hKv1.3. The reduced k on rate could be explained by non–diffusion-limited bimolecular toxin–channe ...

T1 sequence (P22001 whole entry): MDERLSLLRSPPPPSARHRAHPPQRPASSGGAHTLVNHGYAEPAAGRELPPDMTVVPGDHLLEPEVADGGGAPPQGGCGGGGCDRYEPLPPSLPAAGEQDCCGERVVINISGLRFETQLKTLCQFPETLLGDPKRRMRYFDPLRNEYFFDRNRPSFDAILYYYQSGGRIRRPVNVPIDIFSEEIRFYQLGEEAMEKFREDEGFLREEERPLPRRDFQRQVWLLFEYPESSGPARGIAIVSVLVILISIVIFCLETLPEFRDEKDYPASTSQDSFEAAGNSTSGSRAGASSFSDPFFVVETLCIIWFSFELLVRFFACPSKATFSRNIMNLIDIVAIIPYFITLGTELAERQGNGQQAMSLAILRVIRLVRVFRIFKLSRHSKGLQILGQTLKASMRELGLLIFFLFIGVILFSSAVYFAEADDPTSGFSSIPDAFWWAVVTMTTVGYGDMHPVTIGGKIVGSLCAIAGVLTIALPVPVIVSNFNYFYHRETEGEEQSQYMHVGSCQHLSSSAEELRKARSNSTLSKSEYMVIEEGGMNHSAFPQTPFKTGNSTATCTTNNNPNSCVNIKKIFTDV
Procedure for hKv1.3: The human venous blood from anonymized healthy donors was obtained from a blood bank. The peripheral blood mononuclear cells were isolated through Histopaque1077 (Sigma-Aldrich Hungary, Budapest, Hungary) density gradient centrifugation. Cells obtained were resuspended in RPMI 1640 medium containing 10% fetal calf serum (Sigma-Aldrich), 100 µg/ml penicillin, 100 µg/ml streptomycin, and 2 mM L glutamine, seeded in a 24-well culture plate at a density of 5 x 10^5 cells per ml, and grown in a 5% CO2 incubator at 37°C for 2–5 days. Phytohemagglutinin A (Sigma-Aldrich) was added in 5, 7, and 10 µg/ml concentrations to the medium to boost the potassium ion channel expression.
Electrophysiological measurements were performed by using the patch-clamp technique in whole-cell or outside-out patch configuration and voltage clamp mode using the Multiclamp 700B amplifier and Axon Digidata1440 digitizer (Molecular Devices, Sunnyvale, CA). Micropipettes were pulled from GC150F-15 borosilicate capillaries (Harvard Apparatus Kent, United Kingdom), resulting in 3–5 MΩ resistance in the bath solution. The extracellular solution contained 145 mM NaCl, 5 mM KCl, 1 mM MgCl2, 2.5 mM CaCl2, 5.5 mM glucose, and 10 mM HEPES, with a pH of 7.35 and an osmolarity between 302 and 308 mOsM/L. When the toxins were dissolved at different molar concentrations in bath solution, it was supplemented with 0.1 mg/ml of BSA. The pipette filling (intracellular) solution consisted of 140 mM KF, 2 mM MgCl2, 1 mM CaCl2, 10 mM HEPES, and 11 mM EGTA, with a pH of 7.22 and an osmolarity of 295 mOsM/L.
To record the hKv1.3 and hKv1.2 currents, 15- to 200-ms-long depolarization impulses were applied at +50 mV from a holding potential of −120 mV every 15 s. The pClamp 10.1 software package was used to acquire and analyze the measured data. Current traces were low-pass filtered by the analog four-pole Bessel filters of the amplifiers, and the sampling frequency was set at 20 kHz, at least twice that of the filter cutoff frequency. The effect of the toxin at a given molar concentration was calculated as the remaining current fraction (RCF = I/I0, where I0 is the peak current in the absence of the toxin and I is the peak current at equilibrium block at a given toxin concentration). The data points on dose–response curves represent the mean of 3–4 individual measurements. […]
Pharmacological activity of both versions of rMgTx was evaluated by studying their effect on the hKv1.2 and hKv1.3 ion channels. The hKv1.2 current was recorded in CHO cells, which heterologously expressed the hKv1.2 ion channel, and hKv1.3 current was recorded in the human peripheral blood lymphocytes. […]

As for `CC[N+](CC)(CC)CC` [tetraethylammonium, reference compound], on hKv1.3, the “reduction in peak current, positive control” value was “Around 50%”. In addition, at Kv1.3, the dissociation constant (Kd) was 10 mM.
As to “MgTx (TIINVKCTSPKQCLPPCKAQFGQSAGAKCMNGKCKCYPH; UniProt P40755 1-39, looked up)”, in the assay with Kv1.1, the “inhibition of Kv1.1” value is given as “in picomolar concentrations”. Further, in the assay on Kv1.3 (hKv1.3, whole-cell patch-clamp, ref Bartok et al., 2014), the “kinetics and reversibility of block, hKv1.3” value was “equilibrium block develops rapidly and is fully recoverable upon washout”. Moreover, the “inhibition of Kv1.3” value in the assay on Kv1.3 (ref Garcia-Calvo et al., 1993, Bartok et al., 2014) is given as “high potency in picomolar concentrations”. Further, in the assay with Kv1.2 (hKv1.2, whole-cell patch-clamp, ref Bartok et al.), the “kinetics and reversibility of block, hKv1.2” value is “develops relatively slowly and reversibility of the block is limited”. Besides, the “inhibition of Kv1.2” value in the assay with Kv1.2 (ref Garcia-Calvo et al., 1993, Bartok et al.) is on record as “high potency in picomolar concentrations”.

Broadly, the Kd is the equilibrium constant for the complex coming apart.
